According to US7659249B2, “Membrane-permeable NFAT inhibitory peptide” (Japan Science and Technology Agency, priority 2002, dated 2010):
Residues, ends and D or L forms follow the SMILES beside them.

Key:
lymphocytes [1] = assay: mixed lymphocyte test, [3H]TdR incorporation; format: cell-based, mouse; conditions: 1 μM 11R-VEET
Method: Spleen cells were retrieved from a 6 to 8 week old C3H/HeN mouse and a 6 to 8 week old BALB/c mouse H-2d (available from Shimizu Laboratory Supplies Co., Ltd.). The BALB/c spleen cells were treated with mitomycin C (available from Kyowa Hakko Kogyo Co., Ltd.) and used as stimulating cells.
Subsequently, 5×10^5 of mixed cells obtained by mixing the above stimulating cells and the spleen cells derived from a C3H/HeN mouse in a ratio of 1:5 were added in each well and cultured for 90 hours in a carbon dioxide culture device set to 37° C. and carbon dioxide concentration of 5%. As control, the mixed cells were added to wells containing only a medium and cultured in the same manner.
Then, ^3H-methyl-thymidine (hereinafter referred to as [^3H]TdR, available from Amersham Pharmacia Biotech K.K.) of 0.5 μCi/well was added and culture was conducted for 6 hours. Thereafter, the cells were placed on filter paper having a diameter of 1 cm and the radioactivity of [^3H]TdR incorporated into the cells was measured by a beta counter (made by Beckman Coulter K.K.).

βTC6 cells [2] = assay: insulin secretion of βTC6 cells (Mouse Insulin ELISA); format: cell-based; conditions: 11R-VEET 10, 100, 1000 or 10000 nM, 96 hours
Method: The medium was replaced with a fresh medium containing […] every 24 hours. After 96 hours, the medium was replaced with a fresh medium. Culture was conducted for 1 more hour and the culture supernatant was collected. For control, βTC6 cells were cultured in the same manner, except that a medium without […] was used. Subsequently, using the collected supernatant, the secreted insulin was analyzed using Mouse Insulin ELISA (TMB) Kit (available from Shibayagi Co., Ltd.) according to protocol.

lymphocytes [3] = assay: mixed lymphocyte test using spleen cells from treated mouse, [3H]TdR incorporation; format: in vivo, C3H/HeN mouse; conditions: printed: 1 μM of 11R-VEET; method b87: 10 mg/kg intraperitoneal
Method: Thereafter, the cells were placed on filter paper having a diameter of 1 cm and the radioactivity of [^3H]TdR incorporated into the cells was measured by a beta counter.

βTC6 cells [4] = assay: proliferation of βTC6 cells, [3H]TdR incorporation; format: cell-based; conditions: 11R-VEET 10, 100, 1000 or 10000 nM
Method: The medium was replaced with a fresh medium containing […] every 24 hours. Subsequently, [^3H]TdR of 1 μCi/well was added and culture was conducted for 8 more hours. For control, βTC6 cells were cultured in the same manner except that a medium without […] was used. Thereafter, the cells were placed on filter paper having a diameter of 1 cm and the radioactivity of [^3H]TdR incorporated into the cells was measured by a beta counter.

transplanted beta cells = assay: beta cell transplant in diabetic model mouse, survival of transplant by Kaplan-Meier; format: in vivo; conditions: 10 mg/kg intraperitoneally once a day after transplant, BALB/c donor, C3H/HeN diabetic recipient
Method: For the transplant, a 6 week old BALB/c mouse was used as the donor and a 6 week old C3H/HeN mouse was used as the recipient.
A diabetic model mouse was prepared by intraperitoneally injecting 220 mg/kg of streptozocin (available from Sigma-Aldrich Japan K.K.) to a C3H/HeN mouse. 6 days after the streptozocin injection, the mouse in which the glucose level exceeded 350 mg/dl was determined as being hyperglycemic.
Meanwhile, the spleen of the BALB/c mouse was taken out and after subjecting to discontinuous Ficoll density gradient centrifugation, beta cells were isolated by normal collagenase digestion.
About 500 of the isolated beta cells were transplanted under the capusula of the left kidney of the above diabetic model mouse. […] The glycemia was measured and when the level thereof exceeded 200 mg/dl for 2 consecutive days, transplant rejection was considered to have occurred.

IL-2 gene = assay: transcription of IL-2 gene in Jurkat cells stimulated with PMA and ionomycin, real-time quantitative RT-PCR; format: cell-based, human; conditions: 1 μM 11R-VEET
Method: Subsequently, 100 μl of RPMI containing 2 μM of phorbol 12-myristate 13-acetate (PMA) (available from Sigma-Aldrich Co.) and 40 μM of ionomycin (available from Sigma-Aldrich Co.) was added and culture was continued for 12 more hours. Then, the cells were recovered and using the obtained cells, the transcription amount of IL-2 gene was measured by the following real-time quantitative RT-PCR. In real-time quantitative RT-PCR, GAPDH, which is known as a housekeeping gene, was used as the inner standard substance.
RNeasy Mini Kit (available from QIAGEN K.K.) was used according to protocol and total RNA was extracted from the cells. Using the obtained total RNA, reverse transcription reaction was conducted by incubation at 22° C. for 10 minutes and then at 42° C. for 20 minutes.
Thereafter, using Light Cycler-Fast Start DNA Master SYBR Green I Kit (available from Roche Molecular Biochemicals), 20 μl of a mixed reaction solution ( 1/10 of the amount of the transcription product, 4 mM of MgCl2, 4 kinds of primers: 0.5 μM respectively, 2 μl of 10×Light Cycler-Fast Start DNA Master SYBR Green I) was prepared for amplification reaction. As the primer for human IL-2, the primer included in Competitive Quantitative RT-PCR Kit (available from Funakoshi Co., Ltd.) was used. […]

[5] = tested on: IL-2 gene (transcription); assay: half-life in T cells based on inhibitory activity to IL-2 transcription (time course in Jurkat cells); conditions: human
Method: Subsequently, 100 μl of RPMI containing 2 μM of PMA and 40 μM of ionomycin was added and culture was conducted further for 12 hours, 17 hours, 23 hours, 35 hours or 59 hours.
Subsequently, the relative RNA amount to GAPDH was measured by conducting RT-PCR and real-time quantitative RT-PCR and analysis in the same manner as in Example 3, except that the respective obtained cells were used as samples. The time shown in FIG. 2 refers to the total culture time.
Using 1 ml of 10% fetal bovine serum-containing RPMI containing 1 μM of FK 506, 1×10^5 Jurkat cells were cultured for 1 hour in a carbon dioxide culture device set to 37° C. and carbon dioxide concentration of 5%. Subsequently, 100 μl of RPMI containing 2 μM of PMA and 40 μM of ionomycin was added and culture was conducted further for 12 hours, 17 hours, 23 hours, 35 hours or 59 hours. Thereafter, RT-PCR and real-time quantitative RT-PCR were conducted in the same manner as in Example 3, except that the obtained culture cells were used.

Molecule	effect on proliferation of lymphocytes (lymphocytes [1])	insulin secretion amount of βTC6 cells (βTC6 cells [2])	effect on proliferation of lymphocytes (cells from treated mouse) (lymphocytes [3])	inhibitory effect to proliferation of βTC6 cells (βTC6 cells [4])	survival rate of transplanted beta cells compared to control (transplanted beta cells)	effect on transcription level of IL-2 gene (IL-2 gene)	half-life at 1 μM [5] [h]
11R-VEET: peptide comprising 11 consecutive arginine residues and VEET (MAGPPHIVEETGPHVI) with 3 glycine residues; SEQ ID NO. 4; negative control (RRRRRRRRRRRGGGMAGPPHIVEETGPHVI)	not affected	unaffected	not affected	did not exhibit an inhibitory effect	did not affect	did not affect	–
CC[C@H](C)[C@H](NC(=O)[C@@H](NC(=O)[C@@H]1CCCN1C(=O)[C@H](Cc1c[nH]cn1)NC(=O)[C@@H]1CCCN1C(=O)CNC(=O)[C@H](C)NC(=O)[C@H](CCSC)NC(=O)CNC(=O)CNC(=O)CNC(=O)[C@H](CCCNC(=N)N)NC(=O)[C@H](CCCNC(=N)N)NC(=O)[C@H](CCCNC(=N)N)NC(=O)[C@H](CCCNC(=N)N)NC(=O)[C@H](CCCNC(=N)N)NC(=O)[C@H](CCCNC(=N)N)NC(=O)[C@H](CCCNC(=N)N)NC(=O)[C@H](CCCNC(=N)N)NC(=O)[C@H](CCCNC(=N)N)NC(=O)[C@H](CCCNC(=N)N)NC(=O)[C@@H](N)CCCNC(=N)N)C(C)C)C(=O)N[C@H](C(=O)N[C@H](C(=O)N[C@H](C(=O)NCC(=O)N1CCC[C@H]1C(=O)N[C@@H](Cc1c[nH]cn1)C(=O)N[C@@H](CCC(=O)O)C(=O)N[C@@H](CCC(=O)O)C(=O)O)[C@@H](C)O)[C@@H](C)CC)C(C)C [11R-VIVIT] (H-RRRRRRRRRRRGGGMAGPHPVIVITGPHEE-OH; N-terminus and C-terminus assumed)	–	–	–	–	–	–	~30
